According to publication PMC4838876, “Multivalent display of minimal Clostridium difficile glycan epitopes mimics antigenic properties of larger glycans” (Nature Communications, 2016):

Tests used:
[1] = tested on: anti-PS-I mAbs; test: STD-NMR competition experiment; format: binding, mouse; settings: 1 added to 200 μM, saturation transfer time 2 s
Source text: Figure 6 Epitope mapping of glycan–mAb interactions by STD-NMR. (a,b) Recognition of disaccharide 3 by mAb 10A1 shown as Lewis structure and three-dimensional model calculated with Glycam[70]. Colours indicate percentages of STD effects. (c) Recognition patterns of 3 by three mAbs. STD spectra were acquired at 2 s saturation transfer time in the presence of mAbs 2C5, 10A1 and 10D6 (from top to bottom). (d) Competition of trisaccharide 2 by pentasaccharide 1.
Owing to the slow off-rates of 1 with all three mAbs, we were unable to determine any STD effects for the pentasaccharide. […] This indicated identical binding sites and confirmed high-affinity binding of 1.
Before the STD-NMR studies, proton resonances of oligosaccharides 1–3 were assigned using standard one-dimensional proton spectra, as well as 2D total correlation spectroscopy (2D-TOCSY), correlation spectroscopy, ^1H–^13C heteronuclear single quantum coherence and ^1H–^13C heteronuclear multiple bond correlation spectra at concentrations varying between 5 and 20 mM in D2O. All NMR studies were measured at 298 K on a Varian PremiumCOMPACT 600 MHz spectrometer equipped with a OneNMR probe. […] A total of 2,048 scans were recorded. […] STD build-up curves for mAb 10A1 were recorded at saturation transfer times of 0.5, 1, 2, 4 and 6 s, adjusting the prescan delay accordingly. […]

[2] = tested on: mAb 2C5; test: Interaction Map (IM) analysis based on SPR traces; format: binding, mouse
Source text: Pentasaccharide 1 was bound with about 100-fold lower KD values than the minimal glycan epitope 3. This stronger binding may have been due to avidity (re-binding) effects, as 3 is contained twice in 1, or by higher affinity. To address this question, we compared the binding properties by IM analysis based on SPR traces. […] Both antigens interacted with mAb 2C5 in a 1:1-like manner, indicated by one dominant peak in the IM plots. Therefore, stronger antibody binding to 1 was due to increased affinity, not avidity, which would be characterized by differences in off-rates and additional peaks.
Figure 7 IM and thermodynamic analysis of glycan–mAb interactions and conformation of 1. (a) IM analysis. The heat maps represent on- and off-rates of mAb 2C5 to 1 (upper) and 3 (lower). (b) Thermograms acquired using 7 μM of mAb 2C5 and titrating 250 μM of 1 (left) or 3 mM of 3 (right) at 25 °C. Thermodynamic parameters were inferred by nonlinear least-square fits of the data points. (c) Summary of thermodynamic parameters for 1 and 3 interacting with mAbs 2C5 and 10A1. Bars represent mean±s.e.m. of two independent measurements. See Supplementary Fig. 6 for details. (d) One-dimensional proton NMR spectrum, and 2D zTOCSY and NOE spectroscopy (NOESY) NMR spectra of 1 showing the coupled protons to the anomeric protons of the five residues with numbering according to the structure shown in e. […]

Row | SMILES | Competition of trisaccharide 2 STD effects (in words) [1] | on-rate [2]
1 | C[C@@H]1O[C@@H](O[C@@H]2[C@@H](O)[C@H](O[C@H]3[C@H](O[C@@H]4O[C@@H](C)[C@H](O)[C@@H](O)[C@H]4O)[C@@H](O)[C@@H](O[C@H]4[C@@H](OCCCCCN)O[C@H](CO)[C@@H](O)[C@@H]4O)O[C@@H]3CO)O[C@H](CO)[C@H]2O)[C@H](O)[C@H](O)[C@H]1O [Compound 1] | completely diminished any STD effects imposed by 2 | 126,000 M^−1 s^−1
2 | C[C@@H]1O[C@@H](O[C@@H]2[C@@H](O)[C@H](OCCCCCN)O[C@H](CO)[C@H]2O)[C@H](O)[C@H](O)[C@H]1O [Compound 3, Rha-(1→3)-Glc] | – | 250 M⁻¹ s⁻¹
